Laboratory results: patent US5525594A, “Treatment of hyperandrogenic disorders” (Roussel Uclaf, priority 1993, dated 1996)

Molecular target: T1, 5α-reductase (Homo sapiens, UniProt P31213)
T1 construct: Homogenates of human prostates obtained by radical prostatectomies; from tissue; host or cells: human prostate from radical prostatectomy for benign hyperplasia; resuspended 140,000 g pellet of the homogenate
T1 sequence (P31213 1-254): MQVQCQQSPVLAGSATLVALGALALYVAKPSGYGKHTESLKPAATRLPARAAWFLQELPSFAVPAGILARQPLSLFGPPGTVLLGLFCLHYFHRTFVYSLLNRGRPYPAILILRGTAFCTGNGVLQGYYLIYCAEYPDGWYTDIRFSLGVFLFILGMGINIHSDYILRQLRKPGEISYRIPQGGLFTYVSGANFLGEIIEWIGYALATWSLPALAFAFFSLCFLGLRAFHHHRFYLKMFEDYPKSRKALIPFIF
Experiment: 5α-reductase activity test in vitro, human prostate homogenate, testosterone substrate, HPLC measurement of 5α-reduced metabolites
Assay type: biochemical
Conditions: homogenates of human prostates (BHP), pH 5.5, 37° C., 30 minutes, read-out: IC50 for inhibition of the 5α-reductase activity of the control
Procedure: The test for measuring the 5α-reductase activity was carried cut in vitro by incubating the enzyme and its substrate (testosterone) and by measuring by HPLC chromatography the amount of 5α-reduced metabolites formed (dihydrotestosterone (DHT) and 5α-androstane-diol). Homogenates of human prostates obtained by radical prostatectomies due to benign hyperplasia of the prostate (BHP) were used.
The prostate was collected straight after leaving the operating theater suite and packed in aluminum paper placed in a container filled with dry ice. At the laboratory, if the homogenate was not prepared immediately, the prostate could be stored at -80° C. […]
b) Mixture of "unlabelled" testosterone and "tritiated testosterone" with an isotopic dilution of 100: To obtain a 1 mM solution of testosterone, 2.88 mg of "unlabelled" testosterone were weighed out which was dissolved in 10 ml of ethanol. […] Substrate (S) was ready. […]
The amounts of metabolites produced during the incubation were measured by separating the compounds formed by reversed-phase high performance liquid chromatography (HPLC). […] The extract collected after extraction was injected automatically onto the HPLC system and by the linear radioactivity measurement system (Berthold), only the radioactive metabolites, formed from the testosterone labelled with the substrate, were evaluated. […]

Substance: oenotheine B
- IC50: 22 µM
